Results reported in PubChem BioAssay (NCI).
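Abbreviation: GI50, concentration required for 50% inhibition of growth. TGI: concentration producing complete growth inhibition.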

Key:
Assay in all cases: NCI-60 cell line screen, 384-well format
HCT-15 colon = system: HCT-15 colon
SK-MEL-2 melanoma = system: SK-MEL-2 melanoma
TK-10 renal = system: TK-10 renal
RPMI-8226 leukemia = system: RPMI-8226 leukemia
UO-31 renal = system: UO-31 renal
NCI/ADR-RES ovarian = system: NCI/ADR-RES ovarian
NCI-H522 lung = system: NCI-H522 lung
SNB-19 CNS = system: SNB-19 CNS
U251 glioblastoma = system: U251 glioblastoma
COLO 205 colon = system: COLO 205 colon
HCT-116 colon = system: HCT-116 colon
OVCAR-5 ovarian = system: OVCAR-5 ovarian
HOP-62 NSCLC = system: HOP-62 NSCLC
SK-OV-3 ovarian = system: SK-OV-3 ovarian
OVCAR-4 ovarian = system: OVCAR-4 ovarian
CCRF-CEM leukemia = system: CCRF-CEM leukemia
BT-549 breast = system: BT-549 breast
MDA-MB-468 breast = system: MDA-MB-468 breast
OVCAR-8 ovarian = system: OVCAR-8 ovarian
DU-145 prostate = system: DU-145 prostate
NCI-H322M lung = system: NCI-H322M lung
SW-620 colon = system: SW-620 colon
HCC-2998 colon = system: HCC-2998 colon
MDA-MB-435 melanoma = system: MDA-MB-435 melanoma
UACC-62 melanoma = system: UACC-62 melanoma
IGROV1 ovarian = system: IGROV1 ovarian
MCF7 breast = system: MCF7 breast
UACC-257 melanoma = system: UACC-257 melanoma
NCI-H23 lung = system: NCI-H23 lung
T-47D breast = system: T-47D breast
A549 NSCLC = system: A549 NSCLC
CAKI-1 renal = system: CAKI-1 renal
MDA-MB-231 breast = system: MDA-MB-231 breast
NCI-H460 NSCLC = system: NCI-H460 NSCLC
NCI-H226 lung = system: NCI-H226 lung
KM12 colon = system: KM12 colon
HL-60(TB) leukemia = system: HL-60(TB) leukemia
HOP-92 NSCLC = system: HOP-92 NSCLC
MALME-3M melanoma = system: MALME-3M melanoma
SF-268 CNS = system: SF-268 CNS
SF-295 CNS = system: SF-295 CNS
SN12C renal = system: SN12C renal
SK-MEL-5 melanoma = system: SK-MEL-5 melanoma
HT29 colon = system: HT29 colon
MOLT-4 leukemia = system: MOLT-4 leukemia
786-0 renal = system: 786-0 renal
SR leukemia = system: SR leukemia
M14 melanoma = system: M14 melanoma
OVCAR-3 ovarian = system: OVCAR-3 ovarian
PC-3 prostate = system: PC-3 prostate
SK-MEL-28 melanoma = system: SK-MEL-28 melanoma
LOX IMVI melanoma = system: LOX IMVI melanoma
K-562 leukemia = system: K-562 leukemia
ACHN renal = system: ACHN renal
A498 renal = system: A498 renal
RXF 393 renal = system: RXF 393 renal
SF-539 CNS = system: SF-539 CNS

Structure (SMILES): COc1cc2c(Oc3ccc(-c4cnc(Nc5ccc(F)cc5)n(C)c4=O)cc3F)ccnc2cc1OCCCN1CCOCC1
- GI50 (HCT-15 colon): 0.792 µM
- TGI (HCT-15 colon): 2.03 µM
- GI50 (SK-MEL-2 melanoma): 0.495 µM
- TGI (SK-MEL-2 melanoma): 1.51 µM
- GI50 (TK-10 renal): 1.16 µM
- TGI (TK-10 renal): 2.4 µM
- GI50 (RPMI-8226 leukemia): 0.545 µM
- TGI (RPMI-8226 leukemia): 1.74 µM
- GI50 (UO-31 renal): 0.409 µM
- TGI (UO-31 renal): 1.43 µM
- GI50 (NCI/ADR-RES ovarian): 1.18 µM
- TGI (NCI/ADR-RES ovarian): 2.41 µM
- GI50 (NCI-H522 lung): 1.04 µM
- TGI (NCI-H522 lung): 2.21 µM
- GI50 (SNB-19 CNS): 1.26 µM
- TGI (SNB-19 CNS): 2.52 µM
- GI50 (U251 glioblastoma): 1.14 µM
- TGI (U251 glioblastoma): 2.36 µM
- GI50 (COLO 205 colon): 0.227 µM
- TGI (COLO 205 colon): 0.761 µM
- GI50 (HCT-116 colon): 0.704 µM
- TGI (HCT-116 colon): 2 µM
- GI50 (OVCAR-5 ovarian): 0.811 µM
- TGI (OVCAR-5 ovarian): 2.05 µM
- GI50 (HOP-62 NSCLC): 1.31 µM
- TGI (HOP-62 NSCLC): 2.59 µM
- GI50 (SK-OV-3 ovarian): 0.68 µM
- TGI (SK-OV-3 ovarian): 1.99 µM
- GI50 (OVCAR-4 ovarian): 1.11 µM
- TGI (OVCAR-4 ovarian): 2.32 µM
- GI50 (CCRF-CEM leukemia): 1.07 µM
- TGI (CCRF-CEM leukemia): 2.26 µM
- GI50 (BT-549 breast): 0.684 µM
- TGI (BT-549 breast): 1.87 µM
- GI50 (MDA-MB-468 breast): 1.54 µM
- TGI (MDA-MB-468 breast): 2.87 µM
- GI50 (OVCAR-8 ovarian): 1.31 µM
- TGI (OVCAR-8 ovarian): 2.59 µM
- GI50 (DU-145 prostate): 1.47 µM
- TGI (DU-145 prostate): 2.8 µM
- GI50 (NCI-H322M lung): 0.761 µM
- TGI (NCI-H322M lung): 2.02 µM
- GI50 (SW-620 colon): 0.509 µM
- TGI (SW-620 colon): 1.88 µM
- GI50 (HCC-2998 colon): 1.17 µM
- TGI (HCC-2998 colon): 2.4 µM
- GI50 (MDA-MB-435 melanoma): 0.384 µM
- TGI (MDA-MB-435 melanoma): 1.39 µM
- GI50 (UACC-62 melanoma): 0.288 µM
- TGI (UACC-62 melanoma): 1.25 µM
- GI50 (IGROV1 ovarian): 0.368 µM
- TGI (IGROV1 ovarian): 1.47 µM
- GI50 (MCF7 breast): 0.441 µM
- TGI (MCF7 breast): 1.62 µM
- GI50 (UACC-257 melanoma): 0.252 µM
- TGI (UACC-257 melanoma): 1.09 µM
- GI50 (NCI-H23 lung): 0.237 µM
- TGI (NCI-H23 lung): 1.35 µM
- GI50 (T-47D breast): 1.07 µM
- TGI (T-47D breast): 2.26 µM
- GI50 (A549 NSCLC): 0.572 µM
- TGI (A549 NSCLC): 1.8 µM
- GI50 (CAKI-1 renal): 0.368 µM
- TGI (CAKI-1 renal): 1.41 µM
- GI50 (MDA-MB-231 breast): 0.748 µM
- TGI (MDA-MB-231 breast): 2.03 µM
- GI50 (NCI-H460 NSCLC): 0.526 µM
- TGI (NCI-H460 NSCLC): 1.79 µM
- GI50 (NCI-H226 lung): 0.476 µM
- TGI (NCI-H226 lung): 1.57 µM
- TGI (KM12 colon): 0.308 µM
- GI50 (HL-60(TB) leukemia): 0.268 µM
- TGI (HL-60(TB) leukemia): 1.13 µM
- GI50 (HOP-92 NSCLC): 0.0764 µM
- TGI (HOP-92 NSCLC): 0.452 µM
- GI50 (MALME-3M melanoma): 0.14 µM
- TGI (MALME-3M melanoma): 0.453 µM
- GI50 (SF-268 CNS): 1.16 µM
- TGI (SF-268 CNS): 2.39 µM
- GI50 (SF-295 CNS): 0.439 µM
- TGI (SF-295 CNS): 1.64 µM
- GI50 (SN12C renal): 0.247 µM
- TGI (SN12C renal): 1.29 µM
- GI50 (SK-MEL-5 melanoma): 0.329 µM
- TGI (SK-MEL-5 melanoma): 1.5 µM
- GI50 (HT29 colon): 0.275 µM
- TGI (HT29 colon): 1.2 µM
- GI50 (MOLT-4 leukemia): 0.15 µM
- TGI (MOLT-4 leukemia): 0.369 µM
- GI50 ([…]-0 renal): 1.24 µM
- TGI (786-0 renal): 2.49 µM
- GI50 (SR leukemia): 0.513 µM
- TGI (SR leukemia): 1.68 µM
- GI50 (M14 melanoma): 0.248 µM
- TGI (M14 melanoma): 0.814 µM
- GI50 (OVCAR-3 ovarian): 0.804 µM
- TGI (OVCAR-3 ovarian): 2.04 µM
- GI50 (PC-3 prostate): 1.52 µM
- TGI (PC-3 prostate): 2.86 µM
- GI50 (SK-MEL-28 melanoma): 0.258 µM
- TGI (SK-MEL-28 melanoma): 0.923 µM
- GI50 (LOX IMVI melanoma): 0.402 µM
- TGI (LOX IMVI melanoma): 1.45 µM
- GI50 (K-562 leukemia): 0.0107 µM
- TGI (K-562 leukemia): 0.0234 µM
- GI50 (ACHN renal): 0.313 µM
- TGI (ACHN renal): 1.46 µM
- GI50 (A498 renal): 1.24 µM
- TGI (A498 renal): 2.5 µM
- GI50 (RXF 393 renal): 0.189 µM
- TGI (RXF 393 renal): 0.541 µM
- GI50 (SF-539 CNS): 0.257 µM
- TGI (SF-539 CNS): 1.15 µM
